Data as given in PubChem BioAssay (NCI).
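Values below derive from 48-hour exposures of cells grown in 96-well plates, with endpoints linearly interpolated between the two concentrations bracketing the appropriate inhibition level. GI50 = concentration required for 50% inhibition of growth. TGI marks complete inhibition of growth.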

How the values were obtained:
Experiment in all cases: inhibition of tumour cell growth, NCI panel, 48 h
ACHN renal = tested on: ACHN renal
CAKI-1 renal = tested on: CAKI-1 renal
CCRF-CEM leukemia = tested on: CCRF-CEM leukemia
COLO 205 colon = tested on: COLO 205 colon
DU-145 prostate = tested on: DU-145 prostate
HCC-2998 colon = tested on: HCC-2998 colon
HCT-15 colon = tested on: HCT-15 colon
HOP-62 NSCLC = tested on: HOP-62 NSCLC
K-562 leukemia = tested on: K-562 leukemia
MCF7 breast = tested on: MCF7 breast
NCI/ADR-RES ovarian = tested on: NCI/ADR-RES ovarian
OVCAR-3 ovarian = tested on: OVCAR-3 ovarian
OVCAR-4 ovarian = tested on: OVCAR-4 ovarian
SF-295 CNS = tested on: SF-295 CNS
SF-539 CNS = tested on: SF-539 CNS
SK-MEL-5 melanoma = tested on: SK-MEL-5 melanoma
SK-OV-3 ovarian = tested on: SK-OV-3 ovarian
T-47D breast = tested on: T-47D breast
TK-10 renal = tested on: TK-10 renal
786-0 renal = tested on: 786-0 renal
A549 NSCLC = tested on: A549 NSCLC
BT-549 breast = tested on: BT-549 breast
EKVX NSCLC = tested on: EKVX NSCLC
HL-60(TB) leukemia = tested on: HL-60(TB) leukemia
HOP-92 NSCLC = tested on: HOP-92 NSCLC
HS 578T breast = tested on: HS 578T breast
HT29 colon = tested on: HT29 colon
IGROV1 ovarian = tested on: IGROV1 ovarian
KM12 colon = tested on: KM12 colon
LOX IMVI melanoma = tested on: LOX IMVI melanoma
M14 melanoma = tested on: M14 melanoma
MALME-3M melanoma = tested on: MALME-3M melanoma
MDA-MB-231 breast = tested on: MDA-MB-231 breast
MDA-MB-435 = tested on: MDA-MB-435
MOLT-4 leukemia = tested on: MOLT-4 leukemia
NCI-H226 lung = tested on: NCI-H226 lung
NCI-H23 lung = tested on: NCI-H23 lung
NCI-H460 lung = tested on: NCI-H460 lung
NCI-H522 lung = tested on: NCI-H522 lung
OVCAR-5 ovarian = tested on: OVCAR-5 ovarian
OVCAR-8 ovarian = tested on: OVCAR-8 ovarian
PC-3 prostate = tested on: PC-3 prostate
RPMI-8226 leukemia = tested on: RPMI-8226 leukemia
RXF 393 renal = tested on: RXF 393 renal
SF-268 CNS = tested on: SF-268 CNS
SK-MEL-2 melanoma = tested on: SK-MEL-2 melanoma
SK-MEL-28 melanoma = tested on: SK-MEL-28 melanoma
SN12C renal = tested on: SN12C renal
SNB-19 CNS = tested on: SNB-19 CNS
SNB-75 CNS = tested on: SNB-75 CNS
SR leukemia = tested on: SR leukemia
SW-620 colon = tested on: SW-620 colon
U251 CNS = tested on: U251 CNS
UACC-257 melanoma = tested on: UACC-257 melanoma
UACC-62 melanoma = tested on: UACC-62 melanoma
UO-31 renal = tested on: UO-31 renal

SMILES: CN(C)c1ccc(/C=c2/c3ccccc3n3c2cc(/C=C/c2ccccc2)[n+]3C)cc1
- TGI (ACHN renal): 1.22 µM
- TGI (CAKI-1 renal): 51.2 µM
- TGI (CCRF-CEM leukemia): 0.0821 µM
- TGI (COLO 205 colon): 0.315 µM
- TGI (DU-145 prostate): 1.37 µM
- TGI (HCC-2998 colon): 1.08 µM
- TGI (HCT-15 colon): 3.49 µM
- TGI (HOP-62 NSCLC): 1.16 µM
- TGI (K-562 leukemia): > 100 µM
- TGI (MCF7 breast): 0.591 µM
- TGI (NCI/ADR-RES ovarian): > 50.6 µM
- TGI (OVCAR-3 ovarian): 0.795 µM
- TGI (OVCAR-4 ovarian): 1.86 µM
- TGI (SF-295 CNS): 0.944 µM
- TGI (SF-539 CNS): 0.132 µM
- TGI (SK-MEL-5 melanoma): 0.272 µM
- TGI (SK-OV-3 ovarian): 1.14 µM
- TGI (T-47D breast): 0.123 µM
- TGI (TK-10 renal): 3.77 µM

SMILES: N#CC1=C(N)NC(N2CCOCC2)=NC12Nc1ccccc1O2 (centres undefined)
- GI50 (786-0 renal): 21.5 µM
- TGI (786-0 renal): 60.1 µM
- GI50 (A549 NSCLC): 70 µM
- TGI (A549 NSCLC): > 100 µM
- GI50 (ACHN renal): 34 µM
- TGI (ACHN renal): > 100 µM
- GI50 (BT-549 breast): 43.5 µM
- TGI (BT-549 breast): > 100 µM
- GI50 (CAKI-1 renal): 25.3 µM
- TGI (CAKI-1 renal): 86.7 µM
- GI50 (CCRF-CEM leukemia): 44 µM
- TGI (CCRF-CEM leukemia): > 100 µM
- GI50 (COLO 205 colon): 67.7 µM
- TGI (COLO 205 colon): > 100 µM
- GI50 (DU-145 prostate): 59.3 µM
- TGI (DU-145 prostate): > 100 µM
- GI50 (EKVX NSCLC): > 100 µM
- TGI (EKVX NSCLC): > 100 µM
- GI50 (HCT-15 colon): 38.2 µM
- TGI (HCT-15 colon): > 100 µM
- GI50 (HL-60(TB) leukemia): 48.3 µM
- TGI (HL-60(TB) leukemia): > 100 µM
- GI50 (HOP-62 NSCLC): 14 µM
- TGI (HOP-62 NSCLC): 51.3 µM
- GI50 (HOP-92 NSCLC): > 100 µM
- TGI (HOP-92 NSCLC): > 100 µM
- GI50 (HS 578T breast): 23.6 µM
- TGI (HS 578T breast): 68.1 µM
- GI50 (HT29 colon): 47.2 µM
- TGI (HT29 colon): > 100 µM
- GI50 (IGROV1 ovarian): 9.47 µM
- TGI (IGROV1 ovarian): 57.5 µM
- GI50 (K-562 leukemia): 39.2 µM
- TGI (K-562 leukemia): > 100 µM
- GI50 (KM12 colon): 49.8 µM
- TGI (KM12 colon): > 100 µM
- GI50 (LOX IMVI melanoma): 23.7 µM
- TGI (LOX IMVI melanoma): 81 µM
- GI50 (M14 melanoma): 39.6 µM
- TGI (M14 melanoma): > 100 µM
- GI50 (MALME-3M melanoma): > 100 µM
- TGI (MALME-3M melanoma): > 100 µM
- GI50 (MCF7 breast): 23.3 µM
- TGI (MCF7 breast): 64.2 µM
- GI50 (MDA-MB-231 breast): 89.9 µM
- TGI (MDA-MB-231 breast): > 100 µM
- GI50 (MDA-MB-435): 23.5 µM
- TGI (MDA-MB-435): 70.2 µM
- GI50 (MOLT-4 leukemia): 43 µM
- TGI (MOLT-4 leukemia): > 100 µM
- GI50 (NCI-H226 lung): 98.7 µM
- TGI (NCI-H226 lung): > 100 µM
- GI50 (NCI-H23 lung): 29.5 µM
- TGI (NCI-H23 lung): > 100 µM
- GI50 (NCI-H460 lung): 46.1 µM
- TGI (NCI-H460 lung): > 100 µM
- GI50 (NCI-H522 lung): 23 µM
- TGI (NCI-H522 lung): 75 µM
- GI50 (NCI/ADR-RES ovarian): 34.2 µM
- TGI (NCI/ADR-RES ovarian): > 100 µM
- GI50 (OVCAR-3 ovarian): 25.1 µM
- TGI (OVCAR-3 ovarian): 84.8 µM
- GI50 (OVCAR-4 ovarian): > 100 µM
- TGI (OVCAR-4 ovarian): > 100 µM
- GI50 (OVCAR-5 ovarian): > 100 µM
- TGI (OVCAR-5 ovarian): > 100 µM
- GI50 (OVCAR-8 ovarian): 80.6 µM
- TGI (OVCAR-8 ovarian): > 100 µM
- GI50 (PC-3 prostate): 31.8 µM
- TGI (PC-3 prostate): > 100 µM
- GI50 (RPMI-8226 leukemia): 15.4 µM
- TGI (RPMI-8226 leukemia): 61.3 µM
- GI50 (RXF 393 renal): 61.5 µM
- TGI (RXF 393 renal): > 100 µM
- GI50 (SF-268 CNS): 33.8 µM
- TGI (SF-268 CNS): > 100 µM
- GI50 (SF-295 CNS): 38.5 µM
- TGI (SF-295 CNS): > 100 µM
- GI50 (SF-539 CNS): 78.7 µM
- TGI (SF-539 CNS): > 100 µM
- GI50 (SK-MEL-2 melanoma): 39.7 µM
- TGI (SK-MEL-2 melanoma): > 100 µM
- GI50 (SK-MEL-28 melanoma): > 100 µM
- TGI (SK-MEL-28 melanoma): > 100 µM
- GI50 (SK-MEL-5 melanoma): 22.7 µM
- TGI (SK-MEL-5 melanoma): > 100 µM
- GI50 (SK-OV-3 ovarian): > 100 µM
- TGI (SK-OV-3 ovarian): > 100 µM
- GI50 (SN12C renal): 96.4 µM
- TGI (SN12C renal): > 100 µM
- GI50 (SNB-19 CNS): 90.7 µM
- TGI (SNB-19 CNS): > 100 µM
- GI50 (SNB-75 CNS): > 100 µM
- TGI (SNB-75 CNS): > 100 µM
- GI50 (SR leukemia): 27.7 µM
- TGI (SR leukemia): > 100 µM
- GI50 (SW-620 colon): 43.2 µM
- TGI (SW-620 colon): > 100 µM
- GI50 (T-47D breast): 80.3 µM
- TGI (T-47D breast): > 100 µM
- GI50 (TK-10 renal): 34 µM
- TGI (TK-10 renal): > 100 µM
- GI50 (U251 CNS): 45.8 µM
- TGI (U251 CNS): > 100 µM
- GI50 (UACC-257 melanoma): 49.7 µM
- TGI (UACC-257 melanoma): > 100 µM
- GI50 (UACC-62 melanoma): 53.9 µM
- TGI (UACC-62 melanoma): > 100 µM
- GI50 (UO-31 renal): 31.9 µM
- TGI (UO-31 renal): > 100 µM
